The values that follow come from a melting point compilation (Tetko et al.; mined from patent text by program, amines drawn as free bases though some values may be those of a salt).

Where only a bound is given, the exact number is not on record here.

In the case of `CC(C)(C)N=NC1(C(N)=O)CCCCC1`, the melting point lay in the range of 86 to 92 °C.

In turn, `Cc1ccc(-c2cccc(/C=C/C(=O)Nc3ccc(CCl)cc3)c2)cc1` registered a melting point of 178 to 180 °C.

The molecule `COC(=O)c1cnc(Nc2cc(N3CCN(CCO)CC3)nc(C)n2)s1` gave a melting point of 242 °C.

Molecule `CC(C)NC(=S)n1ccc2ccc(Cl)cc21` displayed a melting point of 92 to 93 °C.

The molecule `CCOC(=O)c1cn2c(C)csc2n1` displayed a melting point of 117 to 119 °C.

`CCc1oc(-c2ccc(S(C)(=O)=O)cc2)c(Oc2ccc(F)cc2F)c(=O)c1C` registered a melting point of 200 °C.

Turning to `O=C(O)Cc1ccc2c(c1)CC(NS(=O)(=O)c1ccc(Cl)cc1)C2` (stereo not drawn), the melting point is 154 to 155 °C.

The molecule `Cc1ccccc1S(=O)(=O)NC(N)=O` had a melting point of 179 to 180 °C.

Consider `COC(=O)c1cccc(-c2nc(-c3ccc(OC)cc3)cs2)c1`, for which the melting point is 108 to 109 °C.

Turning to `N[C@@]1(C(=O)O)C[C@H](Oc2ccc(Cl)cc2Cl)[C@H]2[C@H](C(=O)O)[C@H]21` (relative stereo), the melting point is more than 250 °C.

Turning to `O=C(Nc1nnn(C(F)F)n1)C1c2ccccc2Oc2ccccc21`, the melting point lay in the range of 168 to 169 °C.

Molecule `CCCC(=O)Oc1ccc2nc(S(N)(=O)=O)sc2c1` displayed a melting point of 122 to 123 °C.

`CCOC(=O)c1ccc(N=C(Nc2ccc(C(=O)OCC)cc2)c2ccccc2OC)cc1` registered a melting point of 163 to 164 °C.

`O=C1c2ccccc2C(=O)N1CC(=O)N1c2ccccc2N(Cc2ccccc2)C(=O)CC1C=Cc1ccccc1` (stereo not drawn) gave a melting point of 183 to 184 °C.

Regarding `CCOC(=O)c1ccc(C(=O)NS(=O)(=O)c2ccc(CCNC(C)=O)cc2)cn1`, the melting point came to 245 °C.

`CCn1c(=O)n(OCc2ccccc2)c(=O)c2cc(F)c(N3CCN(C)CC3)nc21`: the melting point was 178 to 179 °C.

`CNc1nc(C)c(-c2cn3ccc(C)cc3n2)s1`: the melting point was in the range of 220 to 221 °C.

As for `Cc1nc(NC(=O)c2cnn3c(C(F)(F)F)cc(-c4ccc(C(F)(F)F)cc4)nc23)sc1S(N)(=O)=O`, the melting point came to 303 °C.

In turn, `N#CSc1nc(Cl)ncc1F` showed a melting point of 103 to 104 °C.

Regarding `COC(=O)C(C)c1ccc2c(c1)CC(=O)c1ccccc1S2` (stereo not drawn), the melting point was 81 to 82 °C.

Consider `CCc1ccc(C(C)=O)c(NC(C#N)c2c(Cl)cccc2Cl)c1` (stereo not drawn), for which the melting point turned out to be 111 °C.

`Cc1ccc(-c2cc(C(F)(F)F)n3cnc(-c4ccncc4)c3n2)cc1C(F)(F)F` yielded a melting point of 222 °C.

In turn, `Cc1cn(C(C)(C)C(=O)N(C)C)nc1-c1ccccc1Br` returned a melting point of 192 to 194 °C.

Take `CC(=O)Nc1cccc(-c2ccc(OC[C@H](O)CCc3cccnc3)cc2)c1`: the melting point lay in the range of 110 to 113 °C.

For `Nc1ccc(C(=O)C(O)c2ccccc2)cc1` (stereo not drawn), the melting point lay within 199 to 203 °C.

`Cc1cccc2c1ncn2Cc1oc2ccccc2c(=O)c1-c1ccccc1`: the melting point was in the range of 204 to 208 °C.

`O=C(Nc1ccc(F)cc1F)c1nc(Cl)c(Cl)[nH]1`: the melting point was 290 °C.

`Cc1ccc(C(=O)Nc2ccc(C(=O)N3Cc4ccccc4Cc4ccccc43)cc2)c(C)c1` registered a melting point of 197 to 199 °C.

In turn, `O=C(c1[nH]c2ccc(F)cc2c1Sc1ccccc1)N1CCCC1` had a melting point of 184 to 186 °C.

Molecule `COC(=O)C1(C(C)C)Oc2c(OC)cccc2C1=O` (stereo not drawn) showed a melting point of 87 to 88 °C.

`COc1cc(NC(=O)c2ccccc2)c(=O)[nH]c1C` had a melting point of 247 to 248 °C.

In turn, `Cc1cc2[nH]c(=O)c(C(=O)O)nc2cc1-n1ccc(CNC(=O)Nc2ccc(C(=O)O)cc2)c1` returned a melting point of more than 300 °C.

As to `CS(=O)(=O)c1ccc(Oc2cc(OC3CCOCC3)c3[nH]c(C4=NCC(CC(N)=O)S4)cc3c2)cn1` (stereo not drawn), the melting point lay in the range of 136 to 138 °C.

Consider `CC1(C)Oc2cc3nonc3cc2C(N2CCCC2=O)C1O` (stereo not drawn), for which the melting point was 242 to 244 °C.

As to `CCC12CCC(=O)C=C1c1c(cc(OCC(=O)OCC(C)=O)c(Cl)c1Cl)C2` (stereo not drawn), the melting point is 153 to 155 °C.

For the molecule `O=[N+]([O-])c1ccc(-n2cncn2)cc1F`, the melting point is 90 to 91 °C.

Molecule `COc1ccc(CCN(C)CCOc2ccc(NC(=O)c3cccc4c(=O)c5cc(F)ccc5sc34)cc2)cc1OC` returned a melting point of 145 °C.

In turn, `O=C(Nc1ccc(OCCCN2CCCC2=O)c2ccccc12)c1cc(F)cc(N2CCCCC2)c1` came in with a melting point of 88 to 89 °C.

The molecule `CCCc1nc(N)nc(N)c1N1CCN(c2ccc(C(=O)N[C@@H](CCC(=O)OCC)C(=O)OCC)cc2)CC1` yielded a melting point of 175 to 180 °C.

`Clc1ccc(-c2cc(C3CCN(Cc4ccccc4Cl)CC3)n[nH]2)cc1` gave a melting point of 137 to 139 °C.

With `COc1ccc(-n2c(CC(=O)O)c(C(=O)O)c3cc(Oc4ccc(OC(C)C)cc4)ccc32)cc1`, the melting point worked out at 226 °C.

Turning to `CN(C)C=C(C=O)c1ccccc1Cl`, the melting point is 86.5 to 88.5 °C.

For `CCOC(=O)C1=C(N2CCCC2)N=C(C)C(C(=O)OC)C1c1cccc([N+](=O)[O-])c1` (stereo not drawn), the melting point was 103 °C.

For the molecule `CCOC(=O)c1cnn(-c2cc(C)cc(C)c2)c1S(C)(=O)=O`, the melting point was 120 to 122 °C.

For the molecule `CNC(=O)c1cccc(C=O)c1`, the melting point lay within 101 to 102 °C.

`COc1cccc2sc(Sc3ccc4c(c3)CC[C@H]3N(C)C(=O)CC[C@]43C)nc12` came in with a melting point of 200 to 205 °C.

Regarding `CCCCc1c(-c2cc3ccccc3o2)nc(N)nc1-c1cc2ccccc2o1`, the melting point was 142 to 144 °C.

For `COc1cc(/C=C/CO)ccc1OCc1nc(-c2ccco2)oc1C`, the melting point fell in the range of 128 to 129 °C.

Regarding `COc1nc(Cl)nc(N)c1C`, the melting point was found to be 189 °C.

For the molecule `O=c1[nH]c(=O)n(Cc2cccc(OCc3noc(-c4ccccc4)n3)c2)o1`, the melting point fell in the range of 133 to 134 °C.

For `CCCCCCCCCCNC(=O)N[C@H]1CCCNC(=O)C1`, the melting point lay in the range of 97 to 98 °C.

`Cc1cc(OC2CCN(CCNC(=O)c3ccc(S(C)(=O)=O)cc3)CC2)ccc1Cl`: the melting point lay within 123 to 124 °C.

As for `Fc1ccccc1C1=NCc2cnc(-c3ccccc3)n2-c2ccc(Cl)cc21`, the melting point fell in the range of 241 to 243 °C.

Molecule `CCC(=O)Oc1cc(OC)cc(OC)c1C(=O)C=Cc1ccco1` gave a melting point of 93.6 °C.

Consider `O=C(O)c1cc(OCCCc2cc(-c3ccc(C(F)(F)F)cc3)no2)nn1-c1ccccc1`, for which the melting point was 145 to 146 °C.

In the case of `N#Cc1ccc(CC(=O)Nc2cccc(C(=O)NCCC(=O)OCc3ccccc3)c2)cc1`, the melting point fell in the range of 98 to 99 °C.

Regarding `Cc1cc2c(c(C(C)(C)C)c1)OC(=O)C2Cl` (stereo not drawn), the melting point lay within 81 to 86 °C.

Molecule `Cc1ccc(-n2ccc3c(OCC(C)(C)C)nn(C)c(=O)c32)c(C)c1` returned a melting point of 146 to 147 °C.

In the case of `OC(c1ccccc1)(c1ccc(C(F)(F)F)cc1)c1nccn1Cc1ccccc1` (stereo not drawn), the melting point was in the range of 167 to 169 °C.

Consider `C=CCON=C(CC)C1=C(OCc2ccccc2)CC(C)(C)CC1=O`, for which the melting point was in the range of 60.5 to 61.5 °C.

For the molecule `CCOc1nc(Cl)nc(N(C)C)n1`, the melting point stood at 124 °C.

`CC(C)C(C)CNC(=O)c1ccc2c(c1)N(C(C)CN1CCCC1)c1ccccc1S2` (stereo not drawn) came in with a melting point of 138 °C.

Turning to `CCCc1nc(Nc2cccc(N(C)C)c2)nc(NC2CCN(S(C)(=O)=O)CC2)n1`, the melting point lay in the range of 134 to 136 °C.

On to `O=C(Cl)CN1C(=O)c2ccc([N+](=O)[O-])cc2C1=O`, for which the melting point was 129 to 130 °C.

`CC(=O)c1c(-c2ccccc2)nn(CC2CC2)c(=O)c1Nc1cccc2ncccc12` returned a melting point of 204 to 205 °C.

`NC(=Nc1ccc(N2CCN(C(=O)NCCCCC3CCSS3)CC2)cc1)c1cccs1` (stereo not drawn): the melting point was 201 to 202 °C.

`O=C(Nc1cccc2c1C(=O)c1c-2n[nH]c1-c1ccc(N2CCNCC2)cc1)NN1CCN(CCO)CC1` gave a melting point of 279 °C.

With `OCC1OC(c2ccc(Cl)c(Cc3cc4ccccc4s3)c2)C(O)C(O)C1O` (stereo not drawn), the melting point was in the range of 153 to 154 °C.

`Oc1nc(C2CC2)nc2c1SCCC2` had a melting point of 249 to 250 °C.

As to `Cc1sc(-c2ccccc2)nc1COc1ccc(COc2ncccc2C=O)cc1`, the melting point is 101 to 102 °C.

Regarding `c1cnc2[nH]c(CCCN3CCOCC3)nc2c1`, the melting point lay within 101 to 103 °C.

For the molecule `C=C(CO)C[C@](C)(O)[C@H]1CC[C@H]2[C@@H](O[Si](C)(C)C(C)(C)C)CCC[C@@]21C`, the melting point turned out to be 95 °C.

As for `CCOC(Nc1ccc(C(=O)O)cc1)C(=O)c1ccc(Oc2ccc(Cl)c3ccccc23)cc1` (stereo not drawn), the melting point lay in the range of 155 to 165 °C.

Take `COc1ccc(CCNc2nc(NCc3cc(OC)cc(OC)c3)c3cccnc3n2)cc1`: the melting point was 88 to 89 °C.

In turn, `CCOC(=O)c1cn(NC=O)c2cc(-n3cccc3)c(F)cc2c1=O` gave a melting point of 254 to 257 °C.

As for `C=C(C)n1c(=O)n(CCN(C)Cc2ccccc2)c2ccccc21`, the melting point lay in the range of 107 to 109 °C.

Regarding `COc1cc2ccccc2cc1C(=O)O`, the melting point was 130 to 132 °C.

In turn, `NNc1cc(OCC2CCCSC2)c(Cl)cc1F` (stereo not drawn) showed a melting point of 83 to 87 °C.

As for `CCCC(=O)Nc1ccc2c(c1)C(=O)c1cc(NC(=O)CCC)ccc1C2=O`, the melting point was 275 °C.

As to `O=C1N(Cc2ccccn2)c2ccccc2C12COc1c2ccc2c1OCCO2` (stereo not drawn), the melting point lay within 205 to 206 °C.

In the case of `O=c1c(CCO)c(O)c2cccnc2n1-c1cccc([N+](=O)[O-])c1`, the melting point was 244 to 245 °C.

Regarding `CC(C)Nn1c(CO)nc2c(N)nc3cccnc3c21`, the melting point fell in the range of 242 to 243 °C.

For the molecule `CC1CCC(C)(C)C2=C1CC(O)C(C)(O)C2` (stereo not drawn), the melting point lay within 121 to 123 °C.

Regarding `Nc1cccc(-c2nc3n(n2)CCc2ccccc2-3)c1`, the melting point fell in the range of 118 to 119 °C.

Molecule `NC(CCCc1ccccc1)C(=O)O` (stereo not drawn) returned a melting point of 213 to 215 °C.

The molecule `CC1CN(c2c(F)cc3c(=O)c(C(=O)O)cn(C4CC4)c3c2C#N)CCN1` (stereo not drawn) had a melting point of more than 300 °C.

Turning to `CCC(C)C[C@@H]1O[C@H](CC(=O)Nc2ccc(OC(F)(F)C(=O)O)cc2)C(=O)N(CC(C)(C)CO)c2ccc(Cl)cc21` (stereo partly drawn), the melting point is 149 to 150 °C.

The molecule `Cc1nc2nc(S(=O)(=O)Cl)nn2cc1Cl` yielded a melting point of 99 to 101 °C.

The term melting point denotes the temperature of the solid-liquid transition.
